Where two headings read alike, the source gives them in different places.
Legend:
Assay in all cases: biochemical
Set-up in all cases: Eurofins KinaseProfiler full panel at Km ATP, residual kinase activity (%) relative to DMSO
[1] = biological target: T1, ALK1(h) (Homo sapiens, UniProt P37023)
T1 construct: gene ACVRL1
Procedure, shortened: (§1)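 Compounds screened at 10 µM in radiometric kinase activity assays at Km ATP, reported as remaining kinase activity (%). A KINOMEscan competition-binding screen at 10 µM measured DNA-tagged kinase retained on immobilized active-site ligand by qPCR.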

[2] = biological target: T2, AMPKα2(h) (Homo sapiens, UniProt P54646)
T2 construct: gene PRKAA2
Procedure, shortened: as §1

[3] = biological target: T3, Abl (Q252H) (h) (Homo sapiens, UniProt P00519, Q252H)
T3 construct: gene ABL1
Procedure, shortened: as §1

[4] = biological target: T4, BMPR2(h) (Homo sapiens, UniProt Q13873)
T4 sequence (Q13873 1-1038): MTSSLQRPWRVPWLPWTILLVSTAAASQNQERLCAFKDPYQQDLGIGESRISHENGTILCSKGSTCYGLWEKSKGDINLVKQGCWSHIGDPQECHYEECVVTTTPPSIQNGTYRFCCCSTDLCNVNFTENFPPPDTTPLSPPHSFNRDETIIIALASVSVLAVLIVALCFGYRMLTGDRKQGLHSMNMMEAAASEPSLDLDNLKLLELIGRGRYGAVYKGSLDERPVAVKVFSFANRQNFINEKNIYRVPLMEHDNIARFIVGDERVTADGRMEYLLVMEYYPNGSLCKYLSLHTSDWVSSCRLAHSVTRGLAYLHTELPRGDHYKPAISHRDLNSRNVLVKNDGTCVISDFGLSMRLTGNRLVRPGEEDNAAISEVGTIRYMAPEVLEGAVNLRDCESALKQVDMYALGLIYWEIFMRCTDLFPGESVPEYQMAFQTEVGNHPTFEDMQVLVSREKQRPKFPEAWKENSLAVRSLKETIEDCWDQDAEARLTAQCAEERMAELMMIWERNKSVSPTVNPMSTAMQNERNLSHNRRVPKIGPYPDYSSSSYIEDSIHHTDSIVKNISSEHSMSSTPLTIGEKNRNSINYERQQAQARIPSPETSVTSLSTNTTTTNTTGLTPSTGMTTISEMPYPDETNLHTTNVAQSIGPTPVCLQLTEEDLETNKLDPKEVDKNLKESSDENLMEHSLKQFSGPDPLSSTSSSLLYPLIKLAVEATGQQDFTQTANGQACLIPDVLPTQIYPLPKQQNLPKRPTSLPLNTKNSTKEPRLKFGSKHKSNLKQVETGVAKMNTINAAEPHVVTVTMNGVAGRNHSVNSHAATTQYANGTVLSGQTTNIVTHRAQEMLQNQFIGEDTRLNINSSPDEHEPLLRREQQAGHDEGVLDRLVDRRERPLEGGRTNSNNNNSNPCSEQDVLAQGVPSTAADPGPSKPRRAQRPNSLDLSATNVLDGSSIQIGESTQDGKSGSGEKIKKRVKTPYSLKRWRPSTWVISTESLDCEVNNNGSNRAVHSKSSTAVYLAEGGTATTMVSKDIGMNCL
Procedure, shortened: as §1

[5] = biological target: T5, MST1(h) (Homo sapiens, UniProt Q13043)
T5 construct: gene STK4
T5 sequence (Q13043 1-487): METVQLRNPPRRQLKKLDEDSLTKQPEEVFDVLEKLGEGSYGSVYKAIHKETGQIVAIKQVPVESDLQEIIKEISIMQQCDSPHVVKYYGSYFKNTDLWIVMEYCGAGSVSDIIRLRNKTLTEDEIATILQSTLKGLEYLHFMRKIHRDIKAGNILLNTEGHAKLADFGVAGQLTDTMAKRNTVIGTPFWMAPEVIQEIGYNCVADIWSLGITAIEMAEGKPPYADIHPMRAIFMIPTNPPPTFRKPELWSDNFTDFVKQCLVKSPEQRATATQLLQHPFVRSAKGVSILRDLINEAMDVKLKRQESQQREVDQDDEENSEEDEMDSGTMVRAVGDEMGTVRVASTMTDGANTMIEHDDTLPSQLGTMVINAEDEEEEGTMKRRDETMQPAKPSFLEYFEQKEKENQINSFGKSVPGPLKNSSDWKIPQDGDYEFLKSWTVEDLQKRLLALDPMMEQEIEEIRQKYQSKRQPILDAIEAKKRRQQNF
Procedure, shortened: as §1

[6] = biological target: T6, PDGFRα(h) (Homo sapiens, UniProt P16234)
T6 construct: gene PDGFRA
Procedure, shortened: as §1

[7] = biological target: T7, PI3 Kinase (p110a(H1047R)/p85a)(h) (Homo sapiens, UniProt P42336, H1047R)
T7 construct: gene PIK3CA
T7 sequence (P42336 whole entry H1047R): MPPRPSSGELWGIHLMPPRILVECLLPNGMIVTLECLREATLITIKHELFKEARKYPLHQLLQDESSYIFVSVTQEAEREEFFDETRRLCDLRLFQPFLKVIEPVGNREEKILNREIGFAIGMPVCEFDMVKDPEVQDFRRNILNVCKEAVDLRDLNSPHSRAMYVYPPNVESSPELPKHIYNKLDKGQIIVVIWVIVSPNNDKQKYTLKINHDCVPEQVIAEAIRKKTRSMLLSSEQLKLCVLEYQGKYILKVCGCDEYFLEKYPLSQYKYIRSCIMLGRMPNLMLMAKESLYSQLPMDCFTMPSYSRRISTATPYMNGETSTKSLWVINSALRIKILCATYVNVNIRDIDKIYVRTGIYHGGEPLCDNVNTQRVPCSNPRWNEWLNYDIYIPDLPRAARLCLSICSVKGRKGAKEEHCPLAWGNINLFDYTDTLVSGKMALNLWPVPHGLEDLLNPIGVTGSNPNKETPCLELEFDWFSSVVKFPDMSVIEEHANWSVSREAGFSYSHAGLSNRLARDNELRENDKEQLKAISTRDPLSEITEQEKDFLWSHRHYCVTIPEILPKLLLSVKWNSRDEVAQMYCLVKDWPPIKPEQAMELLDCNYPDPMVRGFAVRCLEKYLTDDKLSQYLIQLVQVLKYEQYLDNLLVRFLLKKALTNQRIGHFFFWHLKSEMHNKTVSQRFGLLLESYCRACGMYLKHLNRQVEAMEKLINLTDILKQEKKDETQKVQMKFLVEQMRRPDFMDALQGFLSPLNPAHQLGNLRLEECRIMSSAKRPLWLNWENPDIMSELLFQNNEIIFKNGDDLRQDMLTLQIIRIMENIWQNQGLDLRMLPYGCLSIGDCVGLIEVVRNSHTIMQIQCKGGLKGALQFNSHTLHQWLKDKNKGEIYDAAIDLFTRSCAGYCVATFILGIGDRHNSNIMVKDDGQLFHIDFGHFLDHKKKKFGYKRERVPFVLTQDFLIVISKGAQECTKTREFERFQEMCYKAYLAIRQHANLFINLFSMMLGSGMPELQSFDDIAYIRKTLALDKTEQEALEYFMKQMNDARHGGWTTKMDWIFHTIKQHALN
T7 sequence (P27986 whole entry partner): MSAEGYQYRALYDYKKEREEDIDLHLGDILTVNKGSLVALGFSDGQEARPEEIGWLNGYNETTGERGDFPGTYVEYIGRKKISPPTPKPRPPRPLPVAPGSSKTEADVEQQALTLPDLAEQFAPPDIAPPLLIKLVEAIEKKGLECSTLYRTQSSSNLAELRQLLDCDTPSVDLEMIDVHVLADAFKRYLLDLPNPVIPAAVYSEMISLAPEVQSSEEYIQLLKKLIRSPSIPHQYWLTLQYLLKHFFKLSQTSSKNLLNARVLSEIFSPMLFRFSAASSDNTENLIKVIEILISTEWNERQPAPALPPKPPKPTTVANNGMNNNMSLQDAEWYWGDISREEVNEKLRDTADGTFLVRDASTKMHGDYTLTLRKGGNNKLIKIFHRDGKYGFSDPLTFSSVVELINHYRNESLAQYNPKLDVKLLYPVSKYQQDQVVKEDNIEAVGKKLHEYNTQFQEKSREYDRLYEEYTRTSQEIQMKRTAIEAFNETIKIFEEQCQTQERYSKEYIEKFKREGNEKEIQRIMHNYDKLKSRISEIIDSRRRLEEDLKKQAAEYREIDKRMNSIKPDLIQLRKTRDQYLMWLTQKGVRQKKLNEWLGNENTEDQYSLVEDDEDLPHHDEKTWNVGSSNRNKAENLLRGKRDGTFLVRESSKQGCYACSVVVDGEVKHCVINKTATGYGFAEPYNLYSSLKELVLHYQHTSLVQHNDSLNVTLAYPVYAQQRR
Procedure, shortened: as §1

[8] = biological target: PIP5K1a(h) (Homo sapiens, UniProt Q99755)
Procedure, shortened: as §1

[9] = biological target: WNK2(h) (Homo sapiens, UniProt Q9Y3S1)
Chain of WNK2(h) (Q9Y3S1 whole entry): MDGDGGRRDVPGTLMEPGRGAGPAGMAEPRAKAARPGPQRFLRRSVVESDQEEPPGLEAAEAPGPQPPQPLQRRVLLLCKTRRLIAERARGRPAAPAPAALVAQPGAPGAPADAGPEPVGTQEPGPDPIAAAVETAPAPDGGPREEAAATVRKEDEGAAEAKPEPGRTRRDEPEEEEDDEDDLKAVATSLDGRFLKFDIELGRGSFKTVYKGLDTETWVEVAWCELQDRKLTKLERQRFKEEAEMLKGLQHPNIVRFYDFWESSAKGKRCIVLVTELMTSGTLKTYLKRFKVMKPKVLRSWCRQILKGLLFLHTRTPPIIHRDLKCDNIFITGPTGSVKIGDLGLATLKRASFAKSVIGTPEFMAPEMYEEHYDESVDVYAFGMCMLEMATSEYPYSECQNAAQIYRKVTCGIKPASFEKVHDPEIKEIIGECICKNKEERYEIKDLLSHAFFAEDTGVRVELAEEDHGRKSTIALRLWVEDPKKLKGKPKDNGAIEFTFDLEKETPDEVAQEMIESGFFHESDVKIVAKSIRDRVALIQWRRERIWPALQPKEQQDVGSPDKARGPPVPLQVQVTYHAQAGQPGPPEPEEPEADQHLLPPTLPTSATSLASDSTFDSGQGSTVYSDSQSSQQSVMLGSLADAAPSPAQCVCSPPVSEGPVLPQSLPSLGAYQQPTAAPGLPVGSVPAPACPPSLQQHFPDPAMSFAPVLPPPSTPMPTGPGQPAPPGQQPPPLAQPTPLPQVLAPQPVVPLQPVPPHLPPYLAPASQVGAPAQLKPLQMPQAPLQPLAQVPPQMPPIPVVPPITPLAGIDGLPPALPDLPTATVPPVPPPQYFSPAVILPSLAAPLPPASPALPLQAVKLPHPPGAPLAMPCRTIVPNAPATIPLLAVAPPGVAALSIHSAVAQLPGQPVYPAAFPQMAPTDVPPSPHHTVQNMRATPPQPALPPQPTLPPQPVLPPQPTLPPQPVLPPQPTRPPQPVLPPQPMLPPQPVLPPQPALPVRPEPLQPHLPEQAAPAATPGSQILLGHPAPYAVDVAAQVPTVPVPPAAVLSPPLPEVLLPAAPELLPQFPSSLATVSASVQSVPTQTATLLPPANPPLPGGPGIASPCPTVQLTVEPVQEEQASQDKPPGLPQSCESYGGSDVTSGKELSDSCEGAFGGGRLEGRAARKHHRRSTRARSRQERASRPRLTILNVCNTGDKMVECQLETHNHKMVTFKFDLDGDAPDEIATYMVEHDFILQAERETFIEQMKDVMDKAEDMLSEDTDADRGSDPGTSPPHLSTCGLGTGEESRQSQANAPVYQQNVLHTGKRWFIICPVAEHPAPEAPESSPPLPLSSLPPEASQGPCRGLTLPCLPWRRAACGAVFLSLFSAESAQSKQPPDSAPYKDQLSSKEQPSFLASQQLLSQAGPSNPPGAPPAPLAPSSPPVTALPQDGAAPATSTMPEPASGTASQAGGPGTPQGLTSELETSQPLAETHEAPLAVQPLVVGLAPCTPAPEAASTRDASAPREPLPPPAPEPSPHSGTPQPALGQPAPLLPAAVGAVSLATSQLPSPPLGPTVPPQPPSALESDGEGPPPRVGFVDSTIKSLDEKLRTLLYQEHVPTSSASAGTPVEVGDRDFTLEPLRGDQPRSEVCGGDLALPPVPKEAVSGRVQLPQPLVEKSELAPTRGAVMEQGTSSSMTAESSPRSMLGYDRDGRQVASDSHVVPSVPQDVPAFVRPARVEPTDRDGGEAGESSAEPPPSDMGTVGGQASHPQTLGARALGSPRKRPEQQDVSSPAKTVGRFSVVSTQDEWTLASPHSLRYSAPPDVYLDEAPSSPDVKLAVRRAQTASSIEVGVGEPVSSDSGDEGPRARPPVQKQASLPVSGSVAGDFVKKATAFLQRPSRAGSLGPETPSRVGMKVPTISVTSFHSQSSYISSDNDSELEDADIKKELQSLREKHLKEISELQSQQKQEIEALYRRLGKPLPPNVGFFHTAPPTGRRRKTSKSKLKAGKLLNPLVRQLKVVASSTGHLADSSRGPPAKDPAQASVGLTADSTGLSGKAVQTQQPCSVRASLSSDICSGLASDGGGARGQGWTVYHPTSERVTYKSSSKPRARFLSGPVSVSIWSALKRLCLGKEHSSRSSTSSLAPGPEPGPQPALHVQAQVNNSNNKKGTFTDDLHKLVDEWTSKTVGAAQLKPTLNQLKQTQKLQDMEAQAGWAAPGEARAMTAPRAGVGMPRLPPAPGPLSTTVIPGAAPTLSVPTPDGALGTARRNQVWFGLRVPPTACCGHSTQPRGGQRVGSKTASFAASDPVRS
Procedure, shortened: as §1

[10] = read-out: Residual activity (%) 5ay
[11] = read-out: Residual activity (%) Spautin-1 5aa
[12] = read-out: Residual activity (%) 5at
[13] = read-out: Residual activity (%) 5as

T1 sequence (P37023 whole entry): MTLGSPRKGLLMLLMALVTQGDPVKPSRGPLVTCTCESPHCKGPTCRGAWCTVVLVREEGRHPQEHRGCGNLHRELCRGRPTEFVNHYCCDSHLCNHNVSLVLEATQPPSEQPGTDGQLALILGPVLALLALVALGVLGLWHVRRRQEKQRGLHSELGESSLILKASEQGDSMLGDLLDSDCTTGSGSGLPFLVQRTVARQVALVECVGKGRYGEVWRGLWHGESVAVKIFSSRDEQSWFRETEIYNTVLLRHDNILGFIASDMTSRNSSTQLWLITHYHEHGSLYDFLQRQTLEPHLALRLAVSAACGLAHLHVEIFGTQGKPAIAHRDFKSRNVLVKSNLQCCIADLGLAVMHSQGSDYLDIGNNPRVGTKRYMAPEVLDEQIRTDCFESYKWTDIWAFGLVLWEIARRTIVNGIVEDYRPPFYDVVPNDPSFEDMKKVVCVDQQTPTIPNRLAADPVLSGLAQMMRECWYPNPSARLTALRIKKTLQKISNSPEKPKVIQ

COc1ccc2ncnc(Nc3cccc(F)c3)c2c1 [5ay, N-(3-Fluorophenyl)-6-Methoxy-4-Quinazolinamine]
remaining activity at 10 µM [1, 10]: 96% | remaining activity at 10 µM [2, 10]: 97% | remaining activity at 10 µM [3, 10]: 80% | remaining activity at 10 µM [4, 10]: 99% | remaining activity at 10 µM [5, 10]: 70% | remaining activity at 10 µM [6, 10]: 101% | remaining activity at 10 µM [7, 10]: 96% | remaining activity at 10 µM [8, 10]: 101% | remaining activity at 10 µM [9, 10]: 71%

Fc1ccc(CNc2ncnc3ccc(F)cc23)cc1 [5aa, 6-Fluoro-N-(4-fluorobenzyl)-4-Quinazolinamine]
remaining activity at 10 µM [1, 11]: 104% | remaining activity at 10 µM [2, 11]: 108% | remaining activity at 10 µM [3, 11]: 104% | remaining activity at 10 µM [4, 11]: 115% | remaining activity at 10 µM [5, 11]: 91% | remaining activity at 10 µM [6, 11]: 111% | remaining activity at 10 µM [7, 11]: 99% | remaining activity at 10 µM [8, 11]: 104% | remaining activity at 10 µM [9, 11]: 77%

Fc1ccc2ncnc(NCCc3ccc(Cl)cc3)c2c1 [5at, N-[2-(4-Chlorophenyl)Ethyl]-6-Fluoro-4-Quinazolinamine]
remaining activity at 10 µM [1, 12]: 93% | remaining activity at 10 µM [2, 12]: 109% | remaining activity at 10 µM [3, 12]: 88% | remaining activity at 10 µM [4, 12]: 103% | remaining activity at 10 µM [5, 12]: 97% | remaining activity at 10 µM [6, 12]: 95% | remaining activity at 10 µM [7, 12]: 94% | remaining activity at 10 µM [8, 12]: 104% | remaining activity at 10 µM [9, 12]: 76%

Fc1ccc(CCNc2ncnc3ccc(F)cc23)cc1 [5as, 6-Fluoro-N-[2-(4-Fluorophenyl)Ethyl]-4-Quinazolinamine]
remaining activity at 10 µM [1, 13]: 85% | remaining activity at 10 µM [2, 13]: 108% | remaining activity at 10 µM [3, 13]: 104% | remaining activity at 10 µM [4, 13]: 108% | remaining activity at 10 µM [5, 13]: 78% | remaining activity at 10 µM [6, 13]: 90% | remaining activity at 10 µM [7, 13]: 97% | remaining activity at 10 µM [8, 13]: 103% | remaining activity at 10 µM [9, 13]: 74%
